From ChEMBL document CHEMBL3244165, “Improved synthesis and in vitro antiviral activities of 5-cyanouridine and 5-cyano-2'-deoxyuridine” (J Med Chem, 1977)

System: Vaccinia virus
Test: Antiviral activity against Vaccinia virus infected in primary rabbit kidney cells assessed as inhibition of virus-induced cytopathogenicity
Type: functional, Orthopoxvirus vaccinia

Row | Structure (SMILES) | ID50
1 | N#Cc1cn([C@@H]2O[C@H](CO)[C@@H](O)[C@H]2O)c(=O)[nH]c1=O | >3.7 ×10⁻⁴ M
2 | N#Cc1cn([C@H]2C[C@H](O)[C@@H](CO)O2)c(=O)[nH]c1=O | 1.6 ×10⁻⁵ M
3 | O=c1[nH]c(=O)n([C@H]2C[C@H](O)[C@@H](CO)O2)cc1Br [BROXURIDINE] | 3.2 ×10⁻⁷ M
4 | O=c1[nH]c(=O)n([C@H]2C[C@H](O)[C@@H](CO)O2)cc1Cl [CHLORODEOXYURIDINE] | 7.6 ×10⁻⁷ M
5 | O=c1[nH]c(=O)n([C@H]2C[C@H](O)[C@@H](CO)O2)cc1F [FLOXURIDINE] | 4 ×10⁻⁷ M
6 | O=c1[nH]c(=O)n([C@H]2C[C@H](O)[C@@H](CO)O2)cc1I [IDOXURIDINE] | 1.1 ×10⁻⁶ M
7 | O=c1[nH]c(=O)n([C@H]2C[C@H](O)[C@@H](CO)O2)cc1C(F)(F)F [TRIFLURIDINE] | 3.3 ×10⁻⁷ M
8 | Nc1ncnc2c1ncn2[C@@H]1O[C@H](CO)[C@@H](O)[C@@H]1O [VIDARABINE] | 1.4 ×10⁻⁶ M
